Results from the CheMixHub viscosity set.

Assay: xn = mol fraction of the nth substance listed

[Li+].[OH-] + O
viscosity [mPa·s], 101 kPa
Conditions	x1 = 0.0089	x1 = 0.02284	x1 = 0.0263	x1 = 0.0385	x1 = 0.0513	x1 = 0.075	x1 = 0.0776	x1 = 0.08062
298.15 K	–	1.245	–	1.602	–	–	–	3.29
308.15 K	–	0.996	–	1.261	–	–	–	2.467
323.15 K	0.609	0.748	0.778	0.931	1.114	1.596	1.66	1.743

CCCCCCCC + CCCCCCCCCC
viscosity [mPa·s]
Conditions	297.95 K	298.15 K	313.05 K
101 kPa, x1 = 0.1384	0.8136	–	0.6803
101 kPa, x1 = 0.2144	0.7783	–	0.6439
101 kPa, x1 = 0.3015	0.7465	–	0.6261
101 kPa, x1 = 0.3894	0.6993	–	0.5975
101 kPa, x1 = 0.452	0.6767	–	0.5817
101 kPa, x1 = 0.601	0.6312	–	0.5417
101 kPa, x1 = 0.6988	0.5898	–	0.5129
101 kPa, x1 = 0.8208	0.5543	–	0.4761
101 kPa, x1 = 0.8858	0.5327	–	0.4643
101.33 kPa, x1 = 0.1059	–	0.8166	–
101.33 kPa, x1 = 0.2142	–	0.7747	–
101.33 kPa, x1 = 0.3038	–	0.7382	–
101.33 kPa, x1 = 0.4052	–	0.6937	–
101.33 kPa, x1 = 0.5057	–	0.6694	–
101.33 kPa, x1 = 0.6061	–	0.6305	–
101.33 kPa, x1 = 0.7032	–	0.6018	–
101.33 kPa, x1 = 0.8002	–	0.5722	–
101.33 kPa, x1 = 0.9058	–	0.5366	–

C=COCCCC + COC(=O)c1ccccc1
viscosity [mPa·s], 100 kPa
Conditions	x2 = 0.0898	x2 = 0.1468	x2 = 0.228	x2 = 0.3145	x2 = 0.4054	x2 = 0.5056	x2 = 0.6161	x2 = 0.7316	x2 = 0.8597
303.15 K	0.437	0.497	0.571	0.657	0.761	0.891	1.038	1.205	1.422
308.15 K	0.421	0.478	0.546	–	–	–	0.974	1.124	1.319
313.15 K	0.4	0.452	0.515	0.585	0.671	0.778	0.897	1.034	1.205

ClC(Cl)=C(Cl)Cl + COCCO
viscosity [mPa·s], 101.33 kPa
Conditions	x1 = 0.1062	x1 = 0.2046	x1 = 0.3091	x1 = 0.4453	x1 = 0.5214	x1 = 0.6184	x1 = 0.7146	x1 = 0.8062	x1 = 0.9015
303.15 K	1.365	1.273	1.178	1.066	1.009	0.943	0.89	0.846	0.808
313.15 K	1.111	1.049	0.985	0.907	0.866	0.819	0.778	0.747	0.727

CN(C)C=O + CC#N
Conditions	viscosity [mPa·s]
298.15 K, 101 kPa, x2 = 0.0113	0.794
298.15 K, 101 kPa, x2 = 0.0144	0.792
298.15 K, 101 kPa, x2 = 0.0841	0.761
298.15 K, 101 kPa, x2 = 0.103	0.747
298.15 K, 101 kPa, x2 = 0.1527	0.712
298.15 K, 101 kPa, x2 = 0.2044	0.685
298.15 K, 101 kPa, x2 = 0.2682	0.654
298.15 K, 101 kPa, x2 = 0.3131	0.615
298.15 K, 101 kPa, x2 = 0.3696	0.598
298.15 K, 101 kPa, x2 = 0.3798	0.603
298.15 K, 101 kPa, x2 = 0.4759	0.552
298.15 K, 101 kPa, x2 = 0.5317	0.529
298.15 K, 101 kPa, x2 = 0.5759	0.492
298.15 K, 101 kPa, x2 = 0.6348	0.448
298.15 K, 101 kPa, x2 = 0.6876	0.499
298.15 K, 101 kPa, x2 = 0.743	0.408
298.15 K, 101 kPa, x2 = 0.7906	0.382
298.15 K, 101 kPa, x2 = 0.8453	0.382
298.15 K, 101 kPa, x2 = 0.8954	0.345
298.15 K, 101 kPa, x2 = 0.9485	0.346
298.15 K, 101 kPa, x2 = 0.9723	0.333
303.15 K, 101 kPa, x2 = 0.1176	0.6994
303.15 K, 101 kPa, x2 = 0.2399	0.6372
303.15 K, 101 kPa, x2 = 0.4348	0.5495
303.15 K, 101 kPa, x2 = 0.5933	0.4816
303.15 K, 101 kPa, x2 = 0.7275	0.4283
303.15 K, 101 kPa, x2 = 0.8419	0.3842
303.15 K, 101 kPa, x2 = 0.9418	0.3496
303.15 K, 101.33 kPa, x2 = 0.0953	0.7392
303.15 K, 101.33 kPa, x2 = 0.1981	0.6991
303.15 K, 101.33 kPa, x2 = 0.3038	0.6537
303.15 K, 101.33 kPa, x2 = 0.3988	0.6046
303.15 K, 101.33 kPa, x2 = 0.5	0.5476
303.15 K, 101.33 kPa, x2 = 0.6013	0.494
303.15 K, 101.33 kPa, x2 = 0.6983	0.4471
303.15 K, 101.33 kPa, x2 = 0.8009	0.4023
303.15 K, 101.33 kPa, x2 = 0.8992	0.3607

CCCCCCCCCCCCCC + CC(C)CC(C)(C)C
298.15 K, 101 kPa
Conditions	viscosity [mPa·s]
x2 = 0.1084	1.813
x2 = 0.1551	1.724
x2 = 0.1801	1.702
x2 = 0.2807	1.483
x2 = 0.4042	1.265
x2 = 0.5162	1.086
x2 = 0.6304	0.9193
x2 = 0.7095	0.8085
x2 = 0.7868	0.7168
x2 = 0.8111	0.6841
x2 = 0.8616	0.6216
x2 = 0.9166	0.5603
x2 = 0.9516	0.5263
x2 = 0.9768	0.5023

CCCCCO + c1ccccc1
Conditions	viscosity [mPa·s]
293.15 K, 101.33 kPa, x1 = 0.0659	0.671
293.15 K, 101.33 kPa, x1 = 0.1351	0.715
293.15 K, 101.33 kPa, x1 = 0.218	0.791
293.15 K, 101.33 kPa, x1 = 0.2928	0.876
293.15 K, 101.33 kPa, x1 = 0.4304	1.127
293.15 K, 101.33 kPa, x1 = 0.5061	1.307
293.15 K, 101.33 kPa, x1 = 0.58	1.532
293.15 K, 101.33 kPa, x1 = 0.6971	2.016
293.15 K, 101.33 kPa, x1 = 0.729	2.159
293.15 K, 101.33 kPa, x1 = 0.8032	2.568
293.15 K, 101.33 kPa, x1 = 0.8704	3.014
293.15 K, 101.33 kPa, x1 = 0.9454	3.594
298.15 K, 101 kPa, x1 = 0.04	0.616
298.15 K, 101 kPa, x1 = 0.09	0.641
298.15 K, 101 kPa, x1 = 0.14	0.669
298.15 K, 101 kPa, x1 = 0.18	0.709
298.15 K, 101 kPa, x1 = 0.37	0.936
298.15 K, 101 kPa, x1 = 0.47	1.132
298.15 K, 101 kPa, x1 = 0.57	1.36
298.15 K, 101 kPa, x1 = 0.78	1.963

Cc1ccnc(C)c1 + c1ccccc1
viscosity [mPa·s], 101 kPa
Conditions	x1 = 0.1033	x1 = 0.1926	x1 = 0.3022	x1 = 0.397	x1 = 0.492	x1 = 0.6027	x1 = 0.697	x1 = 0.8005	x1 = 0.8995
303 K	0.5693	0.5838	0.6013	0.6187	0.6483	0.6749	0.6927	0.7197	0.7508
313 K	0.5048	0.5147	0.5305	0.5497	0.5727	0.5908	0.6073	0.6318	0.6679
323 K	0.4489	0.4582	0.4749	0.4967	0.5102	0.5277	0.5424	0.5752	0.5919

ClC(Cl)=C(Cl)Cl + CCCCOCCO
viscosity [mPa·s], 101.33 kPa
Conditions	x1 = 0.1139	x1 = 0.2084	x1 = 0.3166	x1 = 0.4172	x1 = 0.5191	x1 = 0.6215	x1 = 0.7098	x1 = 0.8124	x1 = 0.9087
303.15 K	2.167	1.954	1.716	1.51	1.327	1.17	1.049	0.939	0.854
313.15 K	1.689	1.543	1.381	1.24	1.113	0.998	0.913	0.831	0.771
